US12421249B2, “Inhibitors of APOL1 and methods of using same” (Vertex Pharmaceuticals Incorporated, priority 2020, dated 2025)

These compounds were tested against T1, APOL1 G1 (Homo sapiens, UniProt O14791, I384M/S342G) (assay: Trypanosoma brucei brucei Lysis Assay Using APOL1 Recombinant Protein (AlamarBlue viability readout)). Settings: Trypanosome Assay; IP50 = IC50 for cell proliferation; read-out: Trypanosome Assay IP50.
T1 sequence (O14791 28-398 S342G/I384M): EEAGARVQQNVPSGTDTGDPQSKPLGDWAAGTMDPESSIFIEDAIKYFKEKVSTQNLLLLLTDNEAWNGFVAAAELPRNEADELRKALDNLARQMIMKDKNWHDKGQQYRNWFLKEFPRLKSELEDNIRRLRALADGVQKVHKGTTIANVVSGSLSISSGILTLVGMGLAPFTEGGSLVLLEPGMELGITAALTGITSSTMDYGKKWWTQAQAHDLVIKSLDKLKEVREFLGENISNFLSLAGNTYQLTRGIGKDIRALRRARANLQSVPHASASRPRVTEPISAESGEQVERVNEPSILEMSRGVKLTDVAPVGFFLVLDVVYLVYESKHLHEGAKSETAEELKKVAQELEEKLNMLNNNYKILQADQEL
Assay type: cell-based
Description: Trypanosoma brucei brucei is a blood stream parasite to which human, gorillas, and baboons are immune due to the presence of the APOL1 protein in their HDL particles. The protein is uptaken by the parasite via the TbHpHb receptor located in its flagellar pocket and is bonded by the Hpr protein contained in the HDL particles which triggers the receptor endocytosis by the parasite.
Following endocytosis, the formed vesicle containing the HDL particle matures from early to late endosome, and subsequently to lysosome. The concomitant pH change in the lumen of the vesicle triggers the insertion of the APOL1 protein into the membrane of the late endosome/lysosome and hereby triggers lysosomal membrane permeabilization and as a further downstream event, trypanosome lysis. Trypanosoma brucei brucei is sensitive to lysis by all three APOL1 variants (G0, G1, and G2).
The Trypanosoma brucei brucei lysis assay is a lysis assay of the parasite using recombinant APOL1 protein variant followed by a fluorescent detection method of viability by the addition of AlamarBlue reagent to the assay well, a general metabolic redox indicator (AlamarBlue assay).
Briefly, the AlamarBlue active compound, resazurin, a blue, water soluble, non-toxic and cell permeable molecule, which can be followed by absorbance, is reduced by various metabolic pathways into resorufin, a red compound which can be followed by either absorbance or fluorescence. The assay allows the calculation of the percent viability (percent of living Trypanosomes remaining in each well) at the end of a lysis relative to the untreated condition by interpolation of fluorescent values (FLU) on a standard curve with a known amount of seeded trypanosome/well.
Trypanosoma brucei brucei (ATCC, Cat. No. PRA-382)
• Lister 427 VSG 221 bloodstream form.
Equipment • E1-Clip Tip pipette 12 channel adjustable 2-125 μL, Cat. No. 4672070BT • ThermoFisher MultiDrop 384, Cat. No. 5840300 • Multidrop • Agilent Bravo, Cat. No. G5409A • Bravo • SpectraMax M5 Assay Ready Plates (ARPs) • ARPs comes in two formats: • […] final top concentration with a 2.5 fold dilution down. • […] final top concentration with a 3 fold dilution down. • Both have a 10 point Dose response. • 0.1% DMSO final in the Black Assay Plate. • Compounds are diluted 1000 fold in the Black Assay Plate. • Each plate is designed for 14 compounds in duplicate. • In the final Black Assay Plate: • Column 1: Media only (no APOL1) (100% viable) • Column 2-23: 0.05 μg/mL APOL1 (˜EC90) (10% viable with APOL1) • Column 24: 0.1 μg/mL APOL1 (EC100) (Approx. […] Step 2, Day 4 • Centrifuge at 800×g for 5 minutes at room temperature. • Resuspend in 1 mL media. • Make a 1:25 fold dilution (10 μL/240 μL media). • Count on a hemocytometer (after adding parasites). • Let sit for 1-2 minutes for the parasites to settle. • Count should be approximately 100 viable motile parasites/16 grid or approximately 25×10^6 parasites/flask. • Passage the parasites by adding 1×10^6 parasites/T75 flask in 20 mL media. • Passage the parasites by adding 2.33×10^6 parasites/T175 flask in 46.6 mL media. • For every T75 flask should make enough for approximately 1.5×384 well assay plates. • For every T175 flask should make enough for approximately 3.8×384 well assay plates. Step 3, Day 6 • Centrifuge at 800×g for 5 minutes. • Resuspend in 3 mL assay media (No phenol red, no FBS) per 75 starting flask. • Resuspend in 7 mL assay media (No phenol red, no FBS) per 175 flask • Make a 1:25 fold dilution. • Count by hemocytometer. • Every T75 flask set up should have approximately 75×10^6 parasites/flask (verify doubling time=8.7 hours±1 hour). • Every T175 flask set up should have approximately 175×10^6 parasites/flask (verify doubling time=8.7 hours±1 hour). • Require 46×10^6 parasites per 384 well plate (at 120,000 parasites per well). […]
In the case of `C[C@H]1C[C@@]2(C[C@@H](c3ccc(O)nc3)N1)OCCc1cc(Cl)sc12` (racemic) [Compound 68], the IC50 is reported as < 50 nM. `CCOc1ccc([C@@H]2C[C@]3(C[C@H](C)N2)OCCc2cc(Cl)sc23)nc1` (racemic) [Compound 69] was tested, and the IC50 was < 50 nM. With `C[C@H]1C[C@@]2(C[C@@H](c3cnc(-c4ccccc4)o3)N1)OCCc1cc(Cl)sc12` (racemic) [Compound 70] the IC50 was < 50 nM. For `C[C@H]1C[C@@]2(C[C@@H](c3ccc(C(=O)NC4CC4)cc3)N1)OCCc1cc(Cl)sc12` (racemic) [Compound 71], the IC50 was < 50 nM. With `C[C@H]1C[C@@]2(C[C@@H](c3c[nH]nn3)N1)OCCc1cc(Cl)sc12` (racemic) [Compound 72] the IC50 was < 50 nM. For `Cc1cc([C@@H]2C[C@]3(C[C@H](C)N2)OCCc2cc(Cl)sc23)[nH]n1` (racemic) [Compound 73], the IC50 was < 50 nM. `C[C@H]1C[C@@]2(C[C@@H](c3cn4c(n3)COCC4)N1)OCCc1cc(Cl)sc12` (racemic) [Compound 74] gave an IC50 of 50 to 500 nM. `C[C@H]1C[C@@]2(C[C@@H](c3cnc(N(C)C)nc3)N1)OCCc1cc(Cl)sc12` (racemic) [Compound 75] was tested, and the IC50 was < 50 nM. With `Cc1ccc([C@@H]2C[C@]3(C[C@H](C)N2)OCCc2cc(Cl)sc23)nc1` (racemic) [Compound 77] the IC50 was < 50 nM. In the case of `C[C@H]1C[C@@]2(C[C@@H](c3ccc(S(N)(=O)=O)cc3F)N1)OCCc1cc(Cl)sc12` (racemic) [Compound 78], the IC50 is reported as < 50 nM. `C[C@H]1C[C@@]2(C[C@@H](c3cocn3)N1)OCCc1cc(Cl)sc12` (racemic) [Compound 79] was tested, and the IC50 was < 50 nM. `C[C@H]1C[C@@]2(C[C@@H](c3ccc(=O)n(C)c3)N1)OCCc1cc(Cl)sc12` (racemic) [Compound 80] was tested, and the IC50 was < 50 nM. For `C[C@H]1C[C@@]2(C[C@@H](c3ccccc3)N1)OCCc1cc(Cl)sc12` (racemic) [Compound 81], the IC50 was < 50 nM. In the case of `Cc1ncc([C@@H]2C[C@]3(C[C@H](C)N2)OCCc2cc(Cl)sc23)cn1` (racemic) [Compound 82], the IC50 is reported as < 50 nM. With `C[C@H]1C[C@@]2(C[C@@H](c3ccccn3)N1)OCCc1cc(Cl)sc12` (racemic) [Compound 83] the IC50 was < 50 nM.

Same assay, conditions: Trypanosome Assay; read-out: Trypanosome Assay Max Activity (%)
With `C[C@H]1C[C@@]2(C[C@@H](c3ccc(O)nc3)N1)OCCc1cc(Cl)sc12` (racemic) [Compound 68] the Emax was 106%. Work on `CCOc1ccc([C@@H]2C[C@]3(C[C@H](C)N2)OCCc2cc(Cl)sc23)nc1` (racemic) [Compound 69] yielded an Emax of 110%. In the case of `C[C@H]1C[C@@]2(C[C@@H](c3cnc(-c4ccccc4)o3)N1)OCCc1cc(Cl)sc12` (racemic) [Compound 70], the Emax is reported as 104%. In the case of `C[C@H]1C[C@@]2(C[C@@H](c3ccc(C(=O)NC4CC4)cc3)N1)OCCc1cc(Cl)sc12` (racemic) [Compound 71], the Emax is reported as 104%. `C[C@H]1C[C@@]2(C[C@@H](c3c[nH]nn3)N1)OCCc1cc(Cl)sc12` (racemic) [Compound 72] was tested, and the Emax was 118%. `Cc1cc([C@@H]2C[C@]3(C[C@H](C)N2)OCCc2cc(Cl)sc23)[nH]n1` (racemic) [Compound 73] showed an Emax of 110%. With `C[C@H]1C[C@@]2(C[C@@H](c3cn4c(n3)COCC4)N1)OCCc1cc(Cl)sc12` (racemic) [Compound 74] the Emax was 110%. `C[C@H]1C[C@@]2(C[C@@H](c3cnc(N(C)C)nc3)N1)OCCc1cc(Cl)sc12` (racemic) [Compound 75] showed an Emax of 105%. For `Cc1ccc([C@@H]2C[C@]3(C[C@H](C)N2)OCCc2cc(Cl)sc23)nc1` (racemic) [Compound 77], the Emax was 110%. `C[C@H]1C[C@@]2(C[C@@H](c3ccc(S(N)(=O)=O)cc3F)N1)OCCc1cc(Cl)sc12` (racemic) [Compound 78] showed an Emax of 102%. `C[C@H]1C[C@@]2(C[C@@H](c3cocn3)N1)OCCc1cc(Cl)sc12` (racemic) [Compound 79] was tested, and the Emax was 97.5%. Work on `Cc1ncc([C@@H]2C[C@]3(C[C@H](C)N2)OCCc2cc(Cl)sc23)cn1` (racemic) [Compound 82] yielded an Emax of 106%. With `C[C@H]1C[C@@]2(C[C@@H](c3ccccn3)N1)OCCc1cc(Cl)sc12` (racemic) [Compound 83] the Emax was 111%.

What follows are compounds tested against T2, APOL1 (Homo sapiens, UniProt O14791) (assay: Multi-Tox Assay (MultiTox-Fluor Multiplex Cytotoxicity Assay in tet-inducible APOL1 T-REx-HEK293 cells; Table 46 does not say which APOL1 variant G0/G1/G2)). Settings: IP50 = IC50 for cell proliferation, APOL1 variant not given.
T2 sequence (O14791 1-398 S342G/I384M): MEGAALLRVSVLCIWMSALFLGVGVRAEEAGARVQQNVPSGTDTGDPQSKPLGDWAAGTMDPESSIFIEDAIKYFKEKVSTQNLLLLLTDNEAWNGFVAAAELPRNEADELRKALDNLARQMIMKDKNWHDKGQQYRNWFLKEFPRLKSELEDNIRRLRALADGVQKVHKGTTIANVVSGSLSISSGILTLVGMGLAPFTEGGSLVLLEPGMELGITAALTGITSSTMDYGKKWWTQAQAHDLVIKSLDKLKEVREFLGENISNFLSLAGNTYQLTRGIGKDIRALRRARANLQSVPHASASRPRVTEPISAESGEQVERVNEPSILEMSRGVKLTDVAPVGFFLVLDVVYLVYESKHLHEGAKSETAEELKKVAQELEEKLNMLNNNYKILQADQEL
Assay type: cell-based
`C[C@H]1C[C@@]2(C[C@@H](c3ccc(O)nc3)N1)OCCc1cc(Cl)sc12` (racemic) [Compound 68] was tested, and the IC50 was < 50 nM. For `CCOc1ccc([C@@H]2C[C@]3(C[C@H](C)N2)OCCc2cc(Cl)sc23)nc1` (racemic) [Compound 69], the IC50 was < 50 nM. `C[C@H]1C[C@@]2(C[C@@H](c3cnc(-c4ccccc4)o3)N1)OCCc1cc(Cl)sc12` (racemic) [Compound 70] was tested, and the IC50 was < 50 nM. With `C[C@H]1C[C@@]2(C[C@@H](c3ccc(C(=O)NC4CC4)cc3)N1)OCCc1cc(Cl)sc12` (racemic) [Compound 71] the IC50 was < 50 nM. For `C[C@H]1C[C@@]2(C[C@@H](c3c[nH]nn3)N1)OCCc1cc(Cl)sc12` (racemic) [Compound 72], the IC50 was < 50 nM. `Cc1cc([C@@H]2C[C@]3(C[C@H](C)N2)OCCc2cc(Cl)sc23)[nH]n1` (racemic) [Compound 73] was tested, and the IC50 was < 50 nM. In the case of `C[C@H]1C[C@@]2(C[C@@H](c3cn4c(n3)COCC4)N1)OCCc1cc(Cl)sc12` (racemic) [Compound 74], the IC50 is reported as < 50 nM. In the case of `C[C@H]1C[C@@]2(C[C@@H](c3cnc(N(C)C)nc3)N1)OCCc1cc(Cl)sc12` (racemic) [Compound 75], the IC50 is reported as < 50 nM. In the case of `Cc1ccc([C@@H]2C[C@]3(C[C@H](C)N2)OCCc2cc(Cl)sc23)nc1` (racemic) [Compound 77], the IC50 is reported as < 50 nM. For `C[C@H]1C[C@@]2(C[C@@H](c3ccc(S(N)(=O)=O)cc3F)N1)OCCc1cc(Cl)sc12` (racemic) [Compound 78], the IC50 was < 50 nM. `C[C@H]1C[C@@]2(C[C@@H](c3cocn3)N1)OCCc1cc(Cl)sc12` (racemic) [Compound 79] was tested, and the IC50 was < 50 nM. `C[C@H]1C[C@@]2(C[C@@H](c3ccc(=O)n(C)c3)N1)OCCc1cc(Cl)sc12` (racemic) [Compound 80] was tested, and the IC50 was < 50 nM. In the case of `C[C@H]1C[C@@]2(C[C@@H](c3ccccc3)N1)OCCc1cc(Cl)sc12` (racemic) [Compound 81], the IC50 is reported as < 50 nM. For `Cc1ncc([C@@H]2C[C@]3(C[C@H](C)N2)OCCc2cc(Cl)sc23)cn1` (racemic) [Compound 82], the IC50 was < 50 nM. For `C[C@H]1C[C@@]2(C[C@@H](c3ccccn3)N1)OCCc1cc(Cl)sc12` (racemic) [Compound 83], the IC50 was < 50 nM.
